ChEMBL document CHEMBL1201862, “PubChem BioAssay data set” (2004)
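Five concentrations, 48 hours, 96-well plates. The concentration for 50% growth inhibition is given as GI50.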 Activity calls are given as the source filed them. Rule as the data show it: active = GI50 up to about 1.1 µM and inactive = higher.

Key:
Experiment in all cases: NCI tumour cell line growth inhibition, 48 h
SF-295 = tested on: SF-295
U-251 = tested on: U-251
HOP-92 = tested on: HOP-92
SK-MEL-2 = tested on: SK-MEL-2
UACC-62 = tested on: UACC-62
NCI-H23 = tested on: NCI-H23
UACC-257 = tested on: UACC-257
MOLT-4 = tested on: MOLT-4
LOX IMVI = tested on: LOX IMVI
OVCAR-8 = tested on: OVCAR-8
RPMI-8226 = tested on: RPMI-8226
HOP-62 = tested on: HOP-62
SF-539 = tested on: SF-539
OVCAR-5 = tested on: OVCAR-5
OVCAR-3 = tested on: OVCAR-3
KM12 = tested on: KM12
HL-60 = tested on: HL-60
MCF7 = tested on: MCF7

Row | Structure (SMILES) | GI50 (SF-295) | GI50 (U-251) | GI50 (HOP-92) | GI50 (SK-MEL-2) | GI50 (UACC-62) | GI50 (NCI-H23) | GI50 (UACC-257) | GI50 (MOLT-4) | GI50 (LOX IMVI) | GI50 (OVCAR-8) | GI50 (RPMI-8226) | GI50 (HOP-62) | GI50 (SF-539) | GI50 (OVCAR-5) | GI50 (OVCAR-3) | GI50 (KM12) | GI50 (HL-60) | GI50 (MCF7)
1 | CCOC(=O)C(=O)Nc1ccccc1CC | > 100 µM (inactive) | > 100 µM (inactive) | > 100 µM (inactive) | > 100 µM (inactive) | > 100 µM (inactive) | > 100 µM (inactive) | > 100 µM (inactive) | > 100 µM (inactive) | > 100 µM (inactive) | > 100 µM (inactive) | > 100 µM (inactive) | > 100 µM (inactive) | > 100 µM (inactive) | > 100 µM (inactive) | > 100 µM (inactive) | > 100 µM (inactive) | > 100 µM (inactive) | 
2 | CC1=C2[C@@H](c3ccccc3)C3C=CC2(C=C3C(F)(F)F)N(C(=O)NC2CCCCC2)C1=O (some centres not stated) | > 100 µM (inactive) | > 100 µM (inactive) | > 100 µM (inactive) |  | > 100 µM (inactive) | 59.8 µM (inactive) | 36.2 µM (inactive) | 16.2 µM (inactive) | 44 µM (inactive) | > 100 µM (inactive) |  | 68.1 µM (inactive) | 52.4 µM (inactive) | > 100 µM (inactive) | > 100 µM (inactive) | 72.6 µM (inactive) | 14.8 µM (inactive) | 
3 | CC1=C(C(=O)Nc2cccc(Cl)c2)C(c2ccc([N+](=O)[O-])cc2)C(C(=O)Nc2cccc(Cl)c2)=C(C)N1 | 23.6 µM (inactive) | 15.8 µM (inactive) | 11.5 µM (inactive) | 18.3 µM (inactive) | 14 µM (inactive) | 21.3 µM (inactive) | 16.7 µM (inactive) | 10.3 µM (inactive) | 14.9 µM (inactive) | 30.7 µM (inactive) | 15.5 µM (inactive) | 29 µM (inactive) | 39.8 µM (inactive) | 48 µM (inactive) | 25.6 µM (inactive) | 21.4 µM (inactive) | 17.9 µM (inactive) | 
4 | OCc1ccccc1C1CSCSC1 | > 100 µM (inactive) | > 100 µM (inactive) |  | > 100 µM (inactive) | > 100 µM (inactive) |  | > 100 µM (inactive) | > 100 µM (inactive) | > 100 µM (inactive) | > 100 µM (inactive) |  |  | > 100 µM (inactive) |  | > 100 µM (inactive) | > 100 µM (inactive) | > 100 µM (inactive) | 
5 | COc1ccc(Nc2nc3ccccc3nc2-c2cccs2)cc1 | 70.6 µM (inactive) | > 100 µM (inactive) | 51.5 µM (inactive) | > 100 µM (inactive) | > 100 µM (inactive) | > 100 µM (inactive) | > 100 µM (inactive) | > 100 µM (inactive) | > 100 µM (inactive) | > 100 µM (inactive) |  | 69.7 µM (inactive) | > 100 µM (inactive) | > 100 µM (inactive) | > 100 µM (inactive) | > 100 µM (inactive) | 17.5 µM (inactive) | 
6 | N#CCC(=O)N/N=C1/C(=O)N(c2ccc(Cl)cc2)C(=O)C(=O)C1c1nc2ccccc2s1 (configuration not stated) | > 100 µM (inactive) | > 100 µM (inactive) | 28.2 µM (inactive) | 89.9 µM (inactive) | 60.3 µM (inactive) | > 100 µM (inactive) | 65.6 µM (inactive) |  | 38.2 µM (inactive) | 95.9 µM (inactive) |  | > 100 µM (inactive) |  | > 100 µM (inactive) | > 100 µM (inactive) | > 100 µM (inactive) |  | 
7 | Cn1cc(C(=O)c2ccccc2)ccc1=O | > 100 µM (inactive) | > 100 µM (inactive) | > 100 µM (inactive) | > 100 µM (inactive) | > 100 µM (inactive) | > 100 µM (inactive) | > 100 µM (inactive) | > 100 µM (inactive) | > 100 µM (inactive) | > 100 µM (inactive) | > 100 µM (inactive) | > 100 µM (inactive) | > 100 µM (inactive) | > 100 µM (inactive) | > 100 µM (inactive) | > 100 µM (inactive) | > 100 µM (inactive) | 
8 | C/C=C/c1cc2c(c(=O)o1)C(=O)[C@@H](O)[C@H](C)O2 | 21 µM (inactive) | 17.6 µM (inactive) | 16.9 µM (inactive) | 18.8 µM (inactive) | 17.5 µM (inactive) | 17 µM (inactive) | 14.4 µM (inactive) | 9.71 µM (inactive) | 12.6 µM (inactive) | 16.7 µM (inactive) | 4.09 µM (inactive) | 26.5 µM (inactive) | 18.6 µM (inactive) | 17.2 µM (inactive) | 17.7 µM (inactive) | 14.4 µM (inactive) | 4.32 µM (inactive) | 4.08 µM (inactive)
9 | O=C(/C(=C/c1ccc(O)cc1)c1ccccc1)c1ccccc1 | 16.1 µM (inactive) | 16.2 µM (inactive) | 5.65 µM (inactive) | 11.6 µM (inactive) | 14.1 µM (inactive) | 15 µM (inactive) | 18 µM (inactive) | 15.4 µM (inactive) | 13.2 µM (inactive) | 27 µM (inactive) | 17.3 µM (inactive) | 19.3 µM (inactive) | 16.6 µM (inactive) | 17 µM (inactive) |  | 15.7 µM (inactive) | 13.6 µM (inactive) | 
10 | CCCCCCCCCC/C=C/C=O | > 100 µM (inactive) | > 100 µM (inactive) | > 100 µM (inactive) | > 100 µM (inactive) | > 100 µM (inactive) | > 100 µM (inactive) | > 100 µM (inactive) | 70.3 µM (inactive) | > 100 µM (inactive) | > 100 µM (inactive) |  |  | > 100 µM (inactive) | > 100 µM (inactive) | > 100 µM (inactive) | > 100 µM (inactive) | 56.1 µM (inactive) | 
11 | C1CCC(OCc2nnn3c2CCC3)OC1 (configuration not stated) | > 100 µM (inactive) | > 100 µM (inactive) | > 100 µM (inactive) | > 100 µM (inactive) | > 100 µM (inactive) | > 100 µM (inactive) | > 100 µM (inactive) | > 100 µM (inactive) | > 100 µM (inactive) | > 100 µM (inactive) |  | > 100 µM (inactive) | > 100 µM (inactive) | > 100 µM (inactive) | > 100 µM (inactive) | > 100 µM (inactive) | > 100 µM (inactive) | 
12 | CCOC(=O)C1(Cc2ccc3ccccc3c2)CCCCC(=O)N1 (configuration not stated) | 8.89 µM (inactive) | 41.1 µM (inactive) | 13.1 µM (inactive) |  | 36.1 µM (inactive) | 26 µM (inactive) |  | 7.35 µM (inactive) | 24.1 µM (inactive) | 55.5 µM (inactive) | 3.78 µM (inactive) | 44.6 µM (inactive) |  |  | 17.5 µM (inactive) |  | 12.1 µM (inactive) | 
13 | Cc1ccc(C2NC(=O)c3ccccc3N2)s1 (configuration not stated) | 2.37 µM (inactive) | 4.6 µM (inactive) |  | 3.75 µM (inactive) | 5.51 µM (inactive) | 4.36 µM (inactive) | 2.32 µM (inactive) | 3.07 µM (inactive) | 6.55 µM (inactive) | 8.43 µM (inactive) | 4.69 µM (inactive) | 4.37 µM (inactive) | 3.28 µM (inactive) | 10 µM (inactive) | 3.8 µM (inactive) | 4.61 µM (inactive) | 2.92 µM (inactive) | 
14 | Nc1c(/N=N/c2ccc(-c3ccc(/N=N/c4c(O)ccc5cc(S(=O)(=O)O)cc(S(=O)(=O)O)c45)cc3)cc2)c(S(=O)(=O)O)cc2cc(S(=O)(=O)O)c(/N=N/c3ccccc3)c(O)c12 | > 77.1 µM (inactive) | > 100 µM (inactive) | > 69.7 µM (inactive) | > 100 µM (inactive) | > 100 µM (inactive) | > 96.8 µM (inactive) | > 100 µM (inactive) | > 100 µM (inactive) | > 69 µM (inactive) | > 100 µM (inactive) | > 100 µM (inactive) | > 100 µM (inactive) | > 100 µM (inactive) | > 100 µM (inactive) | > 100 µM (inactive) | > 100 µM (inactive) | 85.1 µM (inactive) | > 100 µM (inactive)
15 | CC1=C(C(=O)Nc2ccccc2)C(c2ccc3c(c2)OCO3)C(C(=O)Nc2ccccc2)=C(C)N1 | 35.3 µM (inactive) |  |  | 28.8 µM (inactive) | 30.1 µM (inactive) | 37.2 µM (inactive) | 40.9 µM (inactive) | 19 µM (inactive) | 24.4 µM (inactive) | 37.9 µM (inactive) | 23.1 µM (inactive) | 41.8 µM (inactive) | 26.5 µM (inactive) | > 10 µM (inactive) | 22.7 µM (inactive) | 28.5 µM (inactive) | 18.1 µM (inactive) | 
16 | C=CC[N+](CCO)(CCO)CCCCCCCCCCCCCCCCCC | 4.41 µM (inactive) | 1.97 µM (inactive) | 1.5 µM (inactive) | 14.5 µM (inactive) | 4.58 µM (inactive) | 12.5 µM (inactive) | 6.38 µM (inactive) | 1.61 µM (inactive) | 2.75 µM (inactive) | 9.25 µM (inactive) | 2.25 µM (inactive) | 6.38 µM (inactive) | 3.54 µM (inactive) | 14 µM (inactive) | 5.11 µM (inactive) | 1.99 µM (inactive) | 0.714 µM (active) | 7.1 µM (inactive)
17 | COc1cc2oc(-c3ccc(O)cc3)cc(=O)c2c(O)c1C1OC(CO)C(O)C(O)C1O (configuration not stated) | > 100 µM (inactive) | > 100 µM (inactive) |  | > 100 µM (inactive) | > 100 µM (inactive) | > 100 µM (inactive) | > 100 µM (inactive) | > 100 µM (inactive) | > 100 µM (inactive) | > 100 µM (inactive) | > 100 µM (inactive) | > 100 µM (inactive) | > 100 µM (inactive) | > 100 µM (inactive) | > 100 µM (inactive) | > 100 µM (inactive) | > 100 µM (inactive) | 
